The structures appear in SMILES notation. The source made the active and inactive calls. The rule behind the calls is not given here.

The data set relates to CCRIS mutagenicity, Ames/micronucleus/aberration tests. Kind of data set: CCRIS mutagenicity studies.
The mark [1] stands for this setting: Test System: AMES SALMONELLA TYPHIMURIUM, Strain/Indicator: TA98, Metabolic Activation: HAMSTER, LIVER, S-9, AROCLOR 1254, Method: STANDARD PLATE.
The mark [2] stands for this setting: Test System: AMES SALMONELLA TYPHIMURIUM, Strain/Indicator: TA98, Metabolic Activation: NONE, Method: STANDARD PLATE.
[3] abbreviates: Test System: AMES SALMONELLA TYPHIMURIUM, Strain/Indicator: TA98, Metabolic Activation: RAT, LIVER, S-9, AROCLOR 1254, Method: STANDARD PLATE.
The mark [4] stands for this setting: Test System: AMES SALMONELLA TYPHIMURIUM, Strain/Indicator: TA100, Metabolic Activation: HAMSTER, LIVER, S-9, AROCLOR 1254, Method: STANDARD PLATE.
Setting [5] is: Test System: AMES SALMONELLA TYPHIMURIUM, Strain/Indicator: TA100, Metabolic Activation: NONE, Method: STANDARD PLATE.
Where [6] appears, read: Test System: AMES SALMONELLA TYPHIMURIUM, Strain/Indicator: TA100, Metabolic Activation: RAT, LIVER, S-9, AROCLOR 1254, Method: STANDARD PLATE.
Setting [7] is: Test System: MOUSE LYMPHOMA, Strain/Indicator: L5178Y (TK+/TK-), Metabolic Activation: NONE, Method: SUSPENSION/PLATE.
Where [8] appears, read: Test System: AMES SALMONELLA TYPHIMURIUM, Strain/Indicator: TA1535, Metabolic Activation: NONE, Method: STANDARD PLATE.
[9] abbreviates: Test System: CHINESE HAMSTER OVARY, Strain/Indicator: CHO-K1-BH4 (HGPRT)/6-THIOGUANINE, Metabolic Activation: NONE.
Where [10] appears, read: Test System: AMES SALMONELLA TYPHIMURIUM, Strain/Indicator: TA1537, Metabolic Activation: NONE, Method: STANDARD PLATE.
The mark [11] stands for this setting: Test System: AMES SALMONELLA TYPHIMURIUM, Strain/Indicator: TA1538, Metabolic Activation: NONE, Method: STANDARD PLATE.

With `C=Cc1ccc(N)cc1`, the mutagenic call under setting [1] is “active; positive”; the mutagenic call under setting [2] is “inactive; negative”; the mutagenic call under setting [3] is “inactive; negative”; the mutagenic call under setting [4] is “active; positive”; the mutagenic call under setting [5] is “inactive; negative”; the mutagenic call under setting [6] is “inactive; negative”. Besides, the mutagenic call under setting [7] is “inactive; positive. reevaluation of results: negative” and the mutagenic call (Test System: MOUSE LYMPHOMA, Strain/Indicator: L5178Y (TK+/TK-), Metabolic Activation: RAT, LIVER, S-9, AROCLOR 1254, Method: SUSPENSION/PLATE) was “inactive; positive. reevaluation of results: negative”.

In the case of `CCc1ccc(/C=C/c2ccc([N+](=O)[O-])cc2)cc1`, the mutagenic call is “active; positive” under setting [2]; “active; positive” (Test System: AMES SALMONELLA TYPHIMURIUM, Strain/Indicator: TA98, Metabolic Activation: RAT, LIVER, S-9, AROCLOR, Method: STANDARD PLATE); “active; positive” under setting [5]; “active; positive” (Test System: AMES SALMONELLA TYPHIMURIUM, Strain/Indicator: TA100, Metabolic Activation: RAT, LIVER, S-9, AROCLOR, Method: STANDARD PLATE).

Turning to `NCCCNCCCCN(CCCN)/[N+]([O-])=N/O`, the mutagenic call is “active; positive” (Test System: AMES SALMONELLA TYPHIMURIUM, Strain/Indicator: TA1535, Metabolic Activation: NONE, Method: PREINCUBATION); “active; positive” under setting [8]; “active; positive” under setting [9]; “active; positive” (Test System: E. COLI, Strain/Indicator: WP2 UVRA (PKM101), Metabolic Activation: NONE, Method: STANDARD PLATE); “active; positive” (Test System: E. COLI, Strain/Indicator: WP2 UVRA/OXYR (PKM101), Metabolic Activation: NONE, Method: STANDARD PLATE); “active; positive” (Test System: E. COLI, Strain/Indicator: WP2 UVRA/UMUDC, Metabolic Activation: NONE, Method: STANDARD PLATE). Also, the mutagenic call runs as follows: (Test System: E. COLI, Strain/Indicator: WP2 UVRA, Metabolic Activation: NONE, Method: STANDARD PLATE) “active; positive”; under setting [7], “active; positive”.

In the case of `CCCCC(CC)COC(=O)c1ccc(C(=O)OCC(CC)CCCC)cc1` (stereo not drawn), the mutagenic call is, setting by setting: under setting [2], “inactive; negative”; (Test System: AMES SALMONELLA TYPHIMURIUM, Strain/Indicator: TA98, Metabolic Activation: RAT, LIVER, S-9, Method: STANDARD PLATE) “inactive; negative”; under setting [5], “inactive; negative”; (Test System: AMES SALMONELLA TYPHIMURIUM, Strain/Indicator: TA100, Metabolic Activation: RAT, LIVER, S-9, Method: STANDARD PLATE) “inactive; negative”; under setting [8], “inactive; negative”; (Test System: AMES SALMONELLA TYPHIMURIUM, Strain/Indicator: TA1535, Metabolic Activation: RAT, LIVER, S-9, Method: STANDARD PLATE) “inactive; negative”. The mutagenic call runs as follows: under setting [10], “inactive; negative”; (Test System: AMES SALMONELLA TYPHIMURIUM, Strain/Indicator: TA1537, Metabolic Activation: RAT, LIVER, S-9, Method: STANDARD PLATE) “inactive; negative”; under setting [11], “inactive; negative”; (Test System: AMES SALMONELLA TYPHIMURIUM, Strain/Indicator: TA1538, Metabolic Activation: RAT, LIVER, S-9, Method: STANDARD PLATE) “inactive; negative”; under setting [9], “inactive; negative”; (Test System: CHINESE HAMSTER OVARY, Strain/Indicator: CHO-K1-BH4 (HGPRT)/6-THIOGUANINE, Metabolic Activation: RAT, LIVER, S-9) “inactive; negative”.

With `c1ccc2c(c1)cc1c3cccc4cccc(c5cccc2c51)c43`, the mutagenic call (Test System: HUMAN H1A1V2 CELLS, Strain/Indicator: TK LOCUS, Metabolic Activation: NONE, Method: SUSPENSION/PLATE) is “active; positive”.

Regarding `CCCCOS(=O)(=O)OCCCC`, the mutagenic call (End Point: In vitro micronucleus, Test System: Chinese Hamster Ovary (CHO-WBL) cells, Metabolic Activation: None) was “active; positive (p<0.01)”.

Consider `C=C1C(=O)[C@]23CCC4[C@](C)(CCC[C@@]4(C)C(=O)O)C2CC[C@@]1(O)C3` (stereo partly drawn), for which the mutagenic call (Test System: AMES SALMONELLA TYPHIMURIUM, Strain/Indicator: TM677, Metabolic Activation: NONE, Method: PREINCUBATION) was “active; positive”.

On to `COCCCN`, for which the mutagenic call runs as follows: under setting [1], “inactive; negative”; under setting [2], “inactive; negative”; under setting [3], “inactive; negative”; under setting [4], “inactive; negative”; under setting [5], “inactive; negative”; under setting [6], “inactive; negative”. In addition, the mutagenic call was “inactive; negative” (Test System: AMES SALMONELLA TYPHIMURIUM, Strain/Indicator: TA1535, Metabolic Activation: HAMSTER, LIVER, S-9, AROCLOR 1254, Method: STANDARD PLATE); “inactive; negative” under setting [8]; “inactive; negative” (Test System: AMES SALMONELLA TYPHIMURIUM, Strain/Indicator: TA1535, Metabolic Activation: RAT, LIVER, S-9, AROCLOR 1254, Method: STANDARD PLATE); “inactive; negative” (Test System: AMES SALMONELLA TYPHIMURIUM, Strain/Indicator: TA1537, Metabolic Activation: HAMSTER, LIVER, S-9, AROCLOR 1254, Method: STANDARD PLATE); “inactive; negative” under setting [10]; “inactive; negative” (Test System: AMES SALMONELLA TYPHIMURIUM, Strain/Indicator: TA1537, Metabolic Activation: RAT, LIVER, S-9, AROCLOR 1254, Method: STANDARD PLATE). Moreover, the mutagenic call runs as follows: (Test System: AMES SALMONELLA TYPHIMURIUM, Strain/Indicator: TA1538, Metabolic Activation: HAMSTER, LIVER, S-9, AROCLOR 1254, Method: STANDARD PLATE) “inactive; negative”; under setting [11], “inactive; negative”; (Test System: AMES SALMONELLA TYPHIMURIUM, Strain/Indicator: TA1538, Metabolic Activation: RAT, LIVER, S-9, AROCLOR 1254, Method: STANDARD PLATE) “inactive; negative”; (Test System: Mouse lymphoma, Strain/Indicator: L5178Y (tk+/tk-), Metabolic Activation: None, Method: Suspension/plate) “inactive; negative”; (Test System: Mouse lymphoma, Strain/Indicator: L5178Y (tk+/tk-), Metabolic Activation: Rat, Liver, S-9, Aroclor 1254, Method: Suspension/plate) “inactive; negative”.

`CON(C)C(=O)Nc1ccc(Br)cc1`: the mutagenic call runs as follows: under setting [2], “inactive; negative”; under setting [3], “inactive; negative”; under setting [5], “inactive; negative”; under setting [6], “inactive; negative”.

Turning to `CC(=O)N[C@@H](CS/C(F)=C(\F)C(F)(F)F)C(=O)O`, for the setting “Test System: AMES SALMONELLA TYPHIMURIUM, Strain/Indicator: TA100, Metabolic Activation: RAT, KIDNEY, S-9, AROCLOR 1254, Method: STANDARD PLATE”, the mutagenic call was “inactive; negative”.

As for `CCC(=O)OCc1ccccc1[N+](=O)[O-]`, the mutagenic call reads like this: (Test System: AMES SALMONELLA TYPHIMURIUM, Strain/Indicator: TA98, Metabolic Activation: NONE, Method: PREINCUBATION) “inactive; negative”; (Test System: AMES SALMONELLA TYPHIMURIUM, Strain/Indicator: TA100, Metabolic Activation: NONE, Method: PREINCUBATION) “inactive; negative”; (Test System: AMES SALMONELLA TYPHIMURIUM, Strain/Indicator: TA100, Metabolic Activation: RAT, LIVER, S-9, AROCLOR 1254, Method: PREINCUBATION) “inactive; negative”.

With `O.O.O.O.O.O.[Cl-].[Cl-].[Co+2]`, the mutagenic call is, setting by setting: (End Point: IN VIVO CHROMOSOMAL ABERRATIONS, Test System: BONE MARROW CELLS, Species: MOUSE, Strain/Sex: SWISS ALBINO/MALE, Route: ORAL) “active; positive (structural and ploidy changes)”; (Test System: CHINESE HAMSTER V-79, Strain/Indicator: SP5 V-79 (HPRT)/6-THIOGUANINE, Metabolic Activation: NONE, Method: STANDARD PLATE) “inactive; negative”; (Test System: CHINESE HAMSTER V-79, Strain/Indicator: SPD8 V-79 (HPRT)/6-THIOGUANINE, Metabolic Activation: NONE, Method: STANDARD PLATE) “active; positive”.

Source of the values: PubChem BioAssay AID1259407 (Chemical Carcinogenesis Research Information System (CCRIS), 2018).
